For assay [1], the system named is 4T1 cells. In words: LDH release assay (CyQUANT). To be noted: 6 h, indicated concentrations, normalized to lysis buffer. The assay is classed as cell-based, murine.
Description: Ten thousand cells were seeded in a 96-well plate and incubated overnight. The cells were washed once, and the medium was replaced with serum-free media. Cells were treated with CKS1 for the indicated time and concentration. CyQUANT LDH cytotoxicity assay (Thermo Fisher Scientific) was used following the manufacturer’s instructions to measure the release of LDH. LDH release was normalized to the amount of LDH released from cells treated with lysis buffer.
The test system of another assay is HUVECs. Description: BrdU incorporation cell proliferation assay. Format: cell-based, human. To be noted: at a concentration in which CKS1 did not induce LDH release, N = 3. The method, then:
One thousands cells were seeded in wells of a 96-well plate. The cells were treated with the indicated concentration of CKS1 immediately after seeding. Forty-eight hours later, 5-bromo-2’-deoxyuridine (BrdU) was added to each well. Twenty four hours later, BrdU incorporation was quantified using the BrdU cell proliferation assay kit (Cell Signaling Technology, Danvers, MA) following the manufacturer’s instructions.
In general terms: Incorporation of labelled thymidine or its analogues reports DNA synthesis.

In assay [2] the test system is 4T1 cells. In words: Transmission electron microscopy of treated cells. The settings on record: 100 µM. The assay is classed as cell-based, murine. The method, then:
Samples were fixed in 2.5% glutaraldehyde, 3 mM MgCl2 in 0.1 M sodium cacodylate buffer, pH 7.2 overnight at 4 °C. After buffer rinse, samples were postfixed in 2% osmium tetroxide in 0.1 M sodium cacodylate for at least 1 h (no more than two) on ice in the dark. After osmium, samples were rinsed in 0.1 M Maleate buffer (pH 6.2), followed by uranyl acetate in 0.1 M Maleate (0.22 µm filtered, 1 h, dark), dehydrated in a graded series of ethanol and embedded in Epon (PolySci) resin. Samples were polymerized at 60 °C overnight. Thin sections, 60–90 nm, were cut with a diamond knife on a Leica UCT ultramicrotome and picked up with 2 × 1 mm Formvar copper slot grids. Grids were stained with 2% uranyl acetate (aq.) followed by lead citrate and observed with a Hitachi 7600 TEM at 80 kV. Images were captured with an AMT CCD XR80 (8-megapixel camera—side mount AMT XR80—high-resolution high-speed camera).

Assay [3] relates to 4T1 cells. In words: Calcein-AM live cell imaging of cytosol release. Format: cell-based, murine. The method, then:
(§1) Fluorescence labeling of cells was performed by seeding 5.0 × 10^4 4T1 cells in a 35 mm dish on a collagen-coated No. 1.5 coverslip with a 14 mm glass diameter (MatTek, Ashland, MA). After overnight incubation, the cells were washed once with serum-free media and replaced with fresh serum-free media. For cell cytosol labeling, Calcein-AM (Thermo Fisher Scientific, C1430) was added at a final concentration of 5 µg/mL and incubated for 10 min. For mitochondrial membrane labeling, JC-1 (Thermo Fisher Scientific, T3168) was added at a final concentration of 10 µg/mL and incubated for 10 min. To monitor the activity of caspases, CellEvent Caspase-3/7 Red detection reagents (Thermo Fisher Scientific, C10423) were used following the manufacturer’s instructions. For nuclear staining, Hoechst 33342 (Cell Signaling Technology, #4082) was added at a final concentration of 5 µg/mL and incubated for 10 min.
Cells were imaged on either a Zeiss LSM 700 or a 3i spinning disk confocal microscope. Samples were imaged with optimized microscope settings. Z-stack, time-lapse, or multi-channel acquisition settings were adjusted based on the experimental requirements. Images were then acquired with the appropriate excitation and emission wavelengths for each fluorophore.
Image processing was performed using Fiji software. For each image/video, the brightness and the contrast were adjusted. The time stamp and the scale bar were added. For quantification, CellProfiler was used. After cell segmentation based on the nucleus, the intensity of the signal of interest was quantified for each cell. Based on the intensity, each cells were labeled as positive or negative and the fraction of positive cells was calculated.

Assay [4] has as its system 4T1 cells. In words: JC-1 mitochondrial membrane potential live cell imaging. Format: cell-based, murine. The settings on record: 100 µM. As for the experimental part:
as §1
Cells were imaged on either a Zeiss LSM 700 or a 3i spinning disk confocal microscope. Samples were imaged with optimized microscope settings. […]
Image processing was performed using Fiji software. […] For quantification, CellProfiler was used. After cell segmentation based on the nucleus, the intensity of the signal of interest was quantified for each cell. Based on the intensity, each cells were labeled as positive or negative and the fraction of positive cells was calculated.

Assay [5] relates to 4T1 cells. In words: Quantification of ATP release. The settings on record: 20 µM or 100 µM, 30 min, N = 3. The assay is classed as cell-based, murine. As for the experimental part: (§2) Two-lakh cells of 4T1 cells or CT26 cells in growth media were seeded in wells of a 96-well plate. After 12 h, the media was replaced with serum-free media, and the cells were treated with the corresponding concentration of CKS1. […] After filtering the supernatant with a 0.2 µm pore filter (Corning, 431229), the amount of ATP in the supernatant was quantified using the ENLITEN ATP assay system (Promega Corporation, Madison, WI, FF2000). We followed the instructions from the manufacturer when using the ENLITEN ATP assay system.

Assay [6] concerns CT26 cells. In words: Quantification of ATP release. Format: cell-based, murine. The settings on record: 20 µM or 100 µM, 30 min, N = 3. As for the experimental part: as §2
Assay [7] concerns 4T1 cells. In words: Quantification of HMGB-1 release (ELISA). The assay is classed as cell-based, murine. The settings on record: 100 µM, 6 h, N = 3. As for the experimental part:
(§3) Fifteen thousand cells of 4T1 cells or CT26 cells in growth media were seeded in wells of a 96-well plate. After 12 h, the media was replaced with serum-free media, and the cells were treated with the corresponding concentration of CKS1. The cells were treated with CKS1 for 6 h and the supernatant was collected from each well. After filtering the supernatant with a 0.2 µm pore filter (Corning, 431229), the amount of HMGB-1 in the supernatant was quantified using the Mouse/Rat HMGB1 ELISA kit (arigo biolaboratories, ARG81310).
A general note: An ELISA detects its analyte on a solid surface through an enzyme-linked reagent.

For assay [8], the system named is CT26 cells. In words: Quantification of HMGB-1 release (ELISA). The assay is classed as cell-based, murine. The settings on record: 100 µM, 6 h, N = 3. The method, then: as §3
The next assay relates to 4T1 tumors. Description: 4T1 triple breast cancer model, intratumoral treatment. Format: in vivo, Balb/c mice. The method, then:
The protocols used in this study were approved by the Institutional Care and Use Committee at Johns Hopkins Medical Institutions. Four- to eight-week-old female Balb/c mice were obtained from Charles River (Wilmington, MA). For the 4T1 […] model, 2.5 × 10^4 4T1 cells were injected into the first mammary fat pad of each mouse. For the CT26 colon carcinoma model, 1.0 × 10^6 CT26 cells were injected subcutaneously in the left flank. The sample size was determined so that the final distribution would be close to normal distribution. After 1 week, the animals were randomized into control and CKS1 treatment. During the randomization, the mice were kept in a cage covered with cloth so that the investigator could not see the tumor size. We started daily intratumoral treatment with 40 mg/kg CKS1. For the control group, the matching volume of water was treated intratumorally. The tumor size was measured by using a caliper, and the volume was calculated by using the formula 0.52 × (length) × (width)^2.
Tumors were fixed by immersion in 10% neutral buffered formalin (Millipore Sigma) for 48 h and subsequently dehydrated by immersion in 70%, 90%, and 100% ethanol followed by xylene for two changes of 30 min each. Tissues were embedded in paraffin blocks at 58 °C and sectioned at 4 μm using a microtome. […]

Entries after “also recorded” stand apart in the source; their conditions may differ. Ends that are not written are not given here.

As for “NGRKACLNPASPIVKKIIEKMLNS-NH2 [CKS1, Chemokinostatin-1]”, the “release of LDH” value with 4T1 cells [1] is recorded as “released significant amounts of LDH”. Also, in the assay on HUVECs, the “cell proliferation (BrdU incorporation)” value is on record as “significantly attenuated cell proliferation”. For the same substance, the “cell membrane integrity by electron microscopy” value with 4T1 cells [2] (30 min) was “ruptured after 30 min”. Moreover, in the assay with 4T1 cells [2] (6 h), the “cell morphology by electron microscopy” value is “apoptotic morphology”. Besides, in the assay with 4T1 cells [3] (4T1 cells stained with calcein-AM, 100 µM, representative of N = 3), the “time to release of cytosol (calcein) after treatment” value was 15 to 30 min. For the same substance, in the assay with 4T1 cells [3] (concentration significantly higher than the IC50 value), the “fraction of cancer cells with damaged cell membrane” value is approximately 100%. The “mitochondrial membrane potential (JC-1 fluorescence)” value in the assay with 4T1 cells [4] is listed as “rapid switch of JC-1 emitted fluorescence from red to green”. In addition, the “release of ATP in the culture media” value in the assay on 4T1 cells [5] and in the assay with CT26 cells [6] was “significant release of ATP” in each case. The “release of HMGB-1 in the culture media” value in the assay on 4T1 cells [7] is listed as “weak”; with CT26 cells [8], “significant release of HMGB-1”. For the same substance, the “tumor growth (tumor volume)” value in the assay on 4T1 tumors (4T1 tumors, 40 mg/kg intratumoral daily from day 7, N = 15, 40 mg/kg) was “inhibited; also recorded: relatively modest response”. Further, the “tumor necrosis (H&E stain)” value with 4T1 tumors (established 4T1 tumors, intratumoral injection, 24 h, representative of N = 3) is listed as “Necrosis was observed”.
